Reference: publication PMC7402526, “An in vitro quantitative systems pharmacology approach for deconvolving mechanisms of drug-induced, multilineage cytopenias” (PLoS Computational Biology, 2020)

What was measured:
[1] = system: lymphocyte progenitors (LymP); assay: MLTA, LymP: concentration-response and QSP model fit; assay type: cell-based, human; conditions: Homo sapiens, Lymphocyte, 144 h
Procedure: (§1) A custom optimized cytokine cocktail was developed using commercially available cytokines (Peprotech, New Jersey) to facilitate simultaneous multi-lineage differentiation and self-renewal of freeze-thawed primary human bone marrow-derived CD34+ cells in SFEM II media (cells and media from StemCell Technologies, Vancouver). Cultures were carried out in ultra-low attachment 96-well plates (Corning, New York) with test article added on day 0 and cultured at 37°C, 85% relative humidity, and 5% CO2 for six days before interrogating drug impact via 17-parameter flow cytometry.
(§2) The flow cytometry panel used to define hematopoietic subsets was composed of CD34-PECy7, CD90-PECY5, CD38-AF488, CD371-PE, CD45Ra-BV421, CD14-BV605, CD42b-AF647, CD10-PEDazzle594, CD235a-PerCPCy5.5 (BioLegend, California), CD15-BUV395, CD41a-APCH7, CD71-BV786 (BD Biosciences, California), and DAPI for dead cell exclusion (ThermoFisher, California). In short, Day 6 cells were harvested, FcR-blocked (FcR binding inhibitor, ThermoFisher), surface-stained, then analyzed in a buffer containing TruCount Control Beads using a BD LSR Fortessa SORP fitted with a high-throughput sampler (BD Biosciences, California). Data was analyzed in Diva 6.0.2 and exported to CSV where after all cell data was transformed to cell per mL then normalized on a per-donor basis to untreated control wells to determine drug impact.
(§3) Donor material was collected and cultured as described above. The number of replicate donor samples per drug ranged from 2–7 and varied per drug (S1 Table). Drug treatment was added at time 0 and cells were maintained in culture for 6 days. Concentrations tested for each drug compound are contained in S1 Table. Concentrations were selected to span a range that is clinically useful. Following treatment, cell populations were measured using flow cytometry. We extracted cell counts from flow cytometry data, normalized to bead counts, and corrected for well volume.
(§4) Each well was normalized to the average of six vehicle control wells. For drugs that were tested across multiple runs of the assay, vehicle-normalized donor data were pooled, and we used the average of these pooled data for further modeling. Normalized data used as model inputs are included in S1 Table.
(§5) We implemented drug effects using an Emax model for the drug’s effect on each cell type. The 13 maximum effect parameters (EmaxT,C) are unitless and can vary between 0 and 2 and where a subscript, C, represents one of the previously described 13 cell types. We adapted a traditional Emax model using the equations below. We interpreted EmaxT values less than or equal to one as anti-proliferative, and EmaxT values greater than one as indicating a cell-killing mechanism in addition to anti-proliferation. The relationships for these effects are included in the model using the following equations. Eq 2 describes the drug anti-proliferative effect in the net proliferation rate for a given cell type. Eq 3 describes the cell-killing EmaxCK effect.
(§6) Towards the estimation of mechanistic parameters, we considered different formulations: (a) weighting the objective value to prioritize fitting dead cells and (b) using regularization methodology to encourage a parsimonious solution. We assessed the contributions of these formulations using mean-squared error and goodness of fit plots for drugs with known mechanisms. […] Further, we used L1 regularization to penalize parameters […] to help identify a parsimonious set of parameters to explain drug effects.

[2] = system: late erythroid cells (Eryth II); assay: MLTA, ErythII: concentration-response and QSP model fit; assay type: cell-based, human; conditions: Homo sapiens, 144 h
Procedure: as §1, §2, §3, §4, §5, §6

[3] = system: total viable cells (totalViableCells); assay: MLTA, total live cells concentration-response; assay type: cell-based; conditions: Homo sapiens, 144 h, 6 days, normalized to vehicle control, read-out: total_live normalized cell count
Procedure: as §1, §2, §3, §4

[4] = system: granulocyte-macrophage progenitor (GMPs); assay: MLTA, GMPs: concentration-response and QSP model fit; assay type: cell-based, human; conditions: Homo sapiens, 144 h
Procedure: as §1, §2, §3, §4, §5, §6

granulocytes (Gran-lin) = assay: MLTA, Gran: concentration-response and QSP model fit; assay type: cell-based, human; conditions: Homo sapiens, 144 h
Procedure: as §1, §2, §3, §4, §5, §6

[5] = system: multi-potent progenitors (MPPs); assay: MLTA, MPPs: concentration-response and QSP model fit; assay type: cell-based, human; conditions: Homo sapiens, 144 h
Procedure: as §1, §2, §3, §4, §5, §6

MK cells (MK-lin) = assay: MLTA, MK: concentration-response and QSP model fit; assay type: cell-based, human; conditions: Homo sapiens, 144 h
Procedure: as §1, §2, §3, §4, §5, §6

[6] = system: total dead cells (totalDeadCells); assay: MLTA, total dead cells concentration-response; assay type: cell-based; conditions: Homo sapiens, 144 h, 6 days, normalized to vehicle control, read-out: total_dead normalized cell count
Procedure: as §1, §2, §3, §4

[7] = QSP model fit of 6-day MLTA data

`CCN1CCN(Cc2ccc(Nc3ncc(F)c(-c4cc(F)c5nc(C)n(C(C)C)c5c4)n3)nc2)CC1` [abemaciclib] gave an activity at 0.0002 µM ([1]; dose 0.2 nM, 6 days, normalized to vehicle control, read-out: LymP normalized cell count) of 93.5%, an activity at 0.001 µM ([1]; dose 1 nM, 6 days, normalized to vehicle control, read-out: LymP normalized cell count) of 99.4% and an activity at 0.005 µM ([1]; dose 5 nM, 6 days, normalized to vehicle control, read-out: LymP normalized cell count) of 92.9%. For the same molecule, the activity at 0.025 µM ([1]; dose 25 nM, 6 days, normalized to vehicle control, read-out: LymP normalized cell count) was 38.9%, the activity at 0.1 µM ([1]; dose 100 nM, 6 days, normalized to vehicle control, read-out: LymP normalized cell count) was 22.1% and the activity at 0.5 µM ([1]; dose 500 nM, 6 days, normalized to vehicle control, read-out: LymP normalized cell count) was 22.3%. It also gave an activity at 2.5 µM ([1]; dose 2500 nM, 6 days, normalized to vehicle control, read-out: LymP normalized cell count) of 7.46%, an Emax ([1]; parameter from QSP model fitting, read-out: Emax_drug_LymP) of 0.16% and an EC50 ([2]; QSP model fit of 6-day MLTA data, read-out: EC50ErythII) of 0.0451 µM. It also gave an activity at 0.0002 µM ([2]; dose 0.2 nM, 6 days, normalized to vehicle control, read-out: ErythII normalized cell count) of 96.2%, an activity at 0.001 µM ([2]; dose 1 nM, 6 days, normalized to vehicle control, read-out: ErythII normalized cell count) of 112% and an activity at 0.005 µM ([2]; dose 5 nM, 6 days, normalized to vehicle control, read-out: ErythII normalized cell count) of 106%. The activity at 0.025 µM ([2]; dose 25 nM, 6 days, normalized to vehicle control, read-out: ErythII normalized cell count) was 57.9%, the activity at 0.1 µM ([2]; dose 100 nM, 6 days, normalized to vehicle control, read-out: ErythII normalized cell count) was 20.4% and the activity at 0.5 µM ([2]; dose 500 nM, 6 days, normalized to vehicle control, read-out: ErythII normalized cell count) was 1.77%. It also gave an activity at 2.5 µM ([2]; dose 2500 nM, 6 days, normalized to vehicle control, read-out: ErythII normalized cell count) of 0.0231%, an Emax ([2]; parameter from QSP model fitting, read-out: Emax_drug_ErythroidII) of 3.33% and a viability at 0.0002 µM ([3]; dose 0.2 nM) of 99.1%. It also gave a viability at 0.001 µM ([3]; dose 1 nM) of 108%, a viability at 0.005 µM ([3]; dose 5 nM) of 96% and a viability at 0.025 µM ([3]; dose 25 nM) of 47.7%. The viability at 0.1 µM ([3]; dose 100 nM) was 17.4%, the viability at 0.5 µM ([3]; dose 500 nM) was 3.05% and the viability at 2.5 µM ([3]; dose 2500 nM) was 0.301%. The EC50 [4, 7] was 0.0373 µM, the activity at 0.0002 µM ([4]; dose 0.2 nM, 6 days, normalized to vehicle control, read-out: GMPs normalized cell count) was 89.7% and the activity at 0.001 µM ([4]; dose 1 nM, 6 days, normalized to vehicle control, read-out: GMPs normalized cell count) was 108%. For the same molecule, the activity at 0.005 µM ([4]; dose 5 nM, 6 days, normalized to vehicle control, read-out: GMPs normalized cell count) was 93.6%, the activity at 0.025 µM ([4]; dose 25 nM, 6 days, normalized to vehicle control, read-out: GMPs normalized cell count) was 50.4% and the activity at 0.1 µM ([4]; dose 100 nM, 6 days, normalized to vehicle control, read-out: GMPs normalized cell count) was 29.2%. It also gave an activity at 0.5 µM ([4]; dose 500 nM, 6 days, normalized to vehicle control, read-out: GMPs normalized cell count) of 5.84%, an activity at 2.5 µM ([4]; dose 2500 nM, 6 days, normalized to vehicle control, read-out: GMPs normalized cell count) of 0.643% and an activity at 0.0002 µM (granulocytes (Gran-lin); dose 0.2 nM, 6 days, normalized to vehicle control, read-out: Gran normalized cell count) of 101%. The activity at 0.001 µM (granulocytes (Gran-lin); dose 1 nM, 6 days, normalized to vehicle control, read-out: Gran normalized cell count) was 107%, the activity at 0.005 µM (granulocytes (Gran-lin); dose 5 nM, 6 days, normalized to vehicle control, read-out: Gran normalized cell count) was 91.3% and the activity at 0.025 µM (granulocytes (Gran-lin); dose 25 nM, 6 days, normalized to vehicle control, read-out: Gran normalized cell count) was 34.6%. For the same molecule, the activity at 0.1 µM (granulocytes (Gran-lin); dose 100 nM, 6 days, normalized to vehicle control, read-out: Gran normalized cell count) was 9.12%, the activity at 0.5 µM (granulocytes (Gran-lin); dose 500 nM, 6 days, normalized to vehicle control, read-out: Gran normalized cell count) was 1.99% and the activity at 2.5 µM (granulocytes (Gran-lin); dose 2500 nM, 6 days, normalized to vehicle control, read-out: Gran normalized cell count) was 0.0882%. It also gave an Emax (granulocytes (Gran-lin); parameter from QSP model fitting, read-out: Emax_drug_Gran) of 0.16%, an activity at 0.0002 µM ([5]; dose 0.2 nM, 6 days, normalized to vehicle control, read-out: MPPs normalized cell count) of 102% and an activity at 0.001 µM ([5]; dose 1 nM, 6 days, normalized to vehicle control, read-out: MPPs normalized cell count) of 98.3%. The activity at 0.005 µM ([5]; dose 5 nM, 6 days, normalized to vehicle control, read-out: MPPs normalized cell count) was 80.3%, the activity at 0.025 µM ([5]; dose 25 nM, 6 days, normalized to vehicle control, read-out: MPPs normalized cell count) was 44.3% and the activity at 0.1 µM ([5]; dose 100 nM, 6 days, normalized to vehicle control, read-out: MPPs normalized cell count) was 24.8%. The activity at 0.5 µM ([5]; dose 500 nM, 6 days, normalized to vehicle control, read-out: MPPs normalized cell count) was 27.6%, the activity at 2.5 µM ([5]; dose 2500 nM, 6 days, normalized to vehicle control, read-out: MPPs normalized cell count) was 3.6% and the Emax ([5]; parameter from QSP model fitting, read-out: Emax_drug_MPP) was 0.16%. The EC50 (MK cells (MK-lin); [7]) was 0.486 µM, the activity at 0.0002 µM (MK cells (MK-lin); dose 0.2 nM, 6 days, normalized to vehicle control, read-out: MK normalized cell count) was 108% and the activity at 0.001 µM (MK cells (MK-lin); dose 1 nM, 6 days, normalized to vehicle control, read-out: MK normalized cell count) was 99.5%. It also gave an activity at 0.005 µM (MK cells (MK-lin); dose 5 nM, 6 days, normalized to vehicle control, read-out: MK normalized cell count) of 101%, an activity at 0.025 µM (MK cells (MK-lin); dose 25 nM, 6 days, normalized to vehicle control, read-out: MK normalized cell count) of 84.2% and an activity at 0.1 µM (MK cells (MK-lin); dose 100 nM, 6 days, normalized to vehicle control, read-out: MK normalized cell count) of 44.1%. The activity at 0.5 µM (MK cells (MK-lin); dose 500 nM, 6 days, normalized to vehicle control, read-out: MK normalized cell count) was 8.35%, the activity at 2.5 µM (MK cells (MK-lin); dose 2500 nM, 6 days, normalized to vehicle control, read-out: MK normalized cell count) was 0.557% and the Emax (MK cells (MK-lin); parameter from QSP model fitting, read-out: Emax_drug_MK) was 6.8%. The activity at 0.0002 µM ([6]; dose 0.2 nM) was 92%, the activity at 0.001 µM ([6]; dose 1 nM) was 97.6% and the activity at 0.005 µM ([6]; dose 5 nM) was 87.1%. For the same molecule, the activity at 0.025 µM ([6]; dose 25 nM) was 46.8%, the activity at 0.1 µM ([6]; dose 100 nM) was 30.9% and the activity at 0.5 µM ([6]; dose 500 nM) was 22%. For the same molecule, the activity at 2.5 µM ([6]; dose 2500 nM) was 34%.
